# Source: EP0556482B1, “Propyl endopeptidase inhibitor” (SNOW BRAND MILK PRODUCTS CO., LTD., priority 1991, dated 1993)
# Where two headings read alike, the source gives them in different places. *1 amine or outer side, *2 acyl side, *3 side chain or, on linkers, in order; H or OH if unused. Where a SMILES comes first, the peptide text is derived from it. Bridges are numbered along the chain shown (N, C = ends). [ ]: non-standard residue; d: D form. The star is where a group is joined. Undeca(2Z,4E)dienoyl(10-Me) = CC(C)CCCC/C=C/C=C\C(=O)*; Phg(3,5-Cl2-4-OH) = N[C@H](C(=O)O)c1cc(Cl)c(O)c(Cl)c1; X1 = N=C1NC[C@@H](C[C@@H](N[*:1])C(=O)[*:2])N1; X2 = N=C1NC[C@@H](C[C@H](N[*:1])C(=O)[*:2])N1; d(aThr) = C[C@@H](O)[C@@H](N)C(=O)O; dHpg = N[C@@H](C(=O)O)c1ccc(O)cc1; Hpg = N[C@H](C(=O)O)c1ccc(O)cc1; Cit = NC(=O)NCCC[C@H](N)C(=O)O; aThr = C[C@H](O)[C@H](N)C(=O)O; dOrn = NCCC[C@@H](N)C(=O)O
# Tests used:
# [1] = target: T1, prolyl endopeptidase derived from Flavobacterium (Elizabethkingia meningoseptica, UniProt P27028); assay type: biochemical; conditions: Table 1; enzyme from Flavobacterium; read-out: IC₅₀ (µM) Flavobacterium
# T1 construct: purchased Seikagaku Kogyo Co
# Description: (§1) The inhibitive activity of enduracidin A was measured by using a methanol solution of this compound.
# (§2) The inhibition rate was determined by the formula, [(A-B)/A] x 100 (%), wherein A represents a fluorescent concentration of liberated 7-AMC in the reaction of the control and B is a fluorescent concentration of liberated 7-AMC in the reaction to which a sample was added.
# [2] = target: T2, prolyl endopeptidase derived from human placenta (Homo sapiens, UniProt P48147); assay: Prolyl endopeptidase inhibitive activity, human placenta enzyme (fluorometric, Z-Gly-Pro-7-AMC substrate); assay type: biochemical; set-up: obtaining a supernatant, from which microsome fractions had been removed, as a prolyl endopeptidase fraction; from tissue; host or cells: human placenta, cytosol fraction (104,000 x g supernatant)
# T2 sequence (P48147 1-710): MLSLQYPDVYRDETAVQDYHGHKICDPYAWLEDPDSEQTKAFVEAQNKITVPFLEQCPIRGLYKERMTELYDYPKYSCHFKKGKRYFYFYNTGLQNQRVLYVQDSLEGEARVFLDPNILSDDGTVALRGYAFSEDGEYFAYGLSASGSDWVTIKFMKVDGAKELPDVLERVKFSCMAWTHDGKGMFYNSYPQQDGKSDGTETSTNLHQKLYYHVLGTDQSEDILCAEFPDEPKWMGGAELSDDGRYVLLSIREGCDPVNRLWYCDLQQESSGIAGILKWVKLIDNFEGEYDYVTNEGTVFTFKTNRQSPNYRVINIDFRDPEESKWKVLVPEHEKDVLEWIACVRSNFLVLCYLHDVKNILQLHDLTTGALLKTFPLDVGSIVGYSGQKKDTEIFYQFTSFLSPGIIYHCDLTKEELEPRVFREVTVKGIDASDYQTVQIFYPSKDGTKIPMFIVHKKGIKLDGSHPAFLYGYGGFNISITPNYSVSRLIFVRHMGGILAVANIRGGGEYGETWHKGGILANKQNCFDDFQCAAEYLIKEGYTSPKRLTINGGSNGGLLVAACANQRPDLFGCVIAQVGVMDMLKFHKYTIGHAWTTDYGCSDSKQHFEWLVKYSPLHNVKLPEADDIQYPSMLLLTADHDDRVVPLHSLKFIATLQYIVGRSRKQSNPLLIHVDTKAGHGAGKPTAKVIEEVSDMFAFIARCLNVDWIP
# Description: as §1
# (§3) The prolyl endopeptidase inhibitive activity in the present invention was measured by the following method. Prolyl endopeptidase from human placenta was prepared according to the method for preparing aromatase [Chem. Pharm. […] The placenta tissues were pulverized and homogenized with a 67 mM potassium phosphate buffer (pH 7.5) containing 5 mM DTT and 0.25 M sucrose. The homogenized solution was centrifuged at 10,000 x g for 30 minutes to obtain a supernatant.
# (§4) To carry out the enzyme reaction, 0.01 ml of each sample dissolved in methanol in various concentrations and 0.01 ml of the placenta cytosol fraction were added to 0.96 ml of a 0.1 M Tris-HCl buffer solution (pH 7.0), and the resulting solution was mixed and incubated at 37°C for 5 minutes. The reaction was initiated by the addition of 0.02 ml of a 2 mM solution of synthesized substrate, Z-Gly-Pro-7-AMC (a product of Cambridge Research Biochemicals), dissolved in 40% dioxane to said solution, and continued for 10 minutes at 37°C. After the reaction, 0.5 ml of a reaction termination agent (10 g of Triton X-100/95 ml, 1 M acetate buffer, pH 4.0) and 2 ml of water were added to measure 7-AMC (7-amino-4-methylcoumarin) liberated by the reaction at an excitation wavelength of 380 nm and an emission wavelength of 460 nm.
# as §2
# mouse = conditions: in vivo, ip; cited from earlier work
# rat = conditions: in vivo, iv; cited from earlier work
# [3] = target: T2, prolyl endopeptidase derived from human placenta; assay: Prolyl endopeptidase inhibitive activity, human placenta enzyme (fluorometric, Z-Gly-Pro-7-AMC substrate); assay type: biochemical; set-up: obtaining a supernatant, from which microsome fractions had been removed, as a prolyl endopeptidase fraction; from tissue; host or cells: human placenta, cytosol fraction (104,000 x g supernatant), crude enzyme
# Description: as §1, §3
# as §4, with “After the reaction, 0.5 ml of a reaction termination agent (10 g of Triton X-100/95 ml, 1 M acetate buffer, pH 4.0) and 2 ml of water were added to measure 7-AMC (7-amino-4-methylcoumarin) liberated by the reaction at an excitation wavelength of 380 nm and an emission wavelength of 460 nm.” left out
# as §2
# [4] = comparison of both enzymes, in words
# T1 sequence (P27028 21-705): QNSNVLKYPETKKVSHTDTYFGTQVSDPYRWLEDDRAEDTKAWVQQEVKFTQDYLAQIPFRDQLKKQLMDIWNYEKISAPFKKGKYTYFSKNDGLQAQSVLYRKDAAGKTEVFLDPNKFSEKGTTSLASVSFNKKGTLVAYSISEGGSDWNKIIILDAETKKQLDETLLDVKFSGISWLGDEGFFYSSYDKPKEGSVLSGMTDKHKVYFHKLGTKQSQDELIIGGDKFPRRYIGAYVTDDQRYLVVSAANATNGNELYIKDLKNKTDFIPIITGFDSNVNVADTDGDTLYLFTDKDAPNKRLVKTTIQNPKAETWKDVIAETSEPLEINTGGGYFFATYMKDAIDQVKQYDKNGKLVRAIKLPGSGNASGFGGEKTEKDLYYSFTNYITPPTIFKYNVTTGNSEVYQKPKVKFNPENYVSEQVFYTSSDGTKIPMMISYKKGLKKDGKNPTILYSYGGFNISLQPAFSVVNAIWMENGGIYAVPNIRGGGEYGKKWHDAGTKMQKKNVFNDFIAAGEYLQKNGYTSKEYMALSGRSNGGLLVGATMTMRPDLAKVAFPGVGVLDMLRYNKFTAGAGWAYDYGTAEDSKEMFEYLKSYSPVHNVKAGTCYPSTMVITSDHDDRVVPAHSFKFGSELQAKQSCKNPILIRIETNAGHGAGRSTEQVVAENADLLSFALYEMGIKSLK
structure (smiles),measurement,setting,value
CC[C@H](C)[C@H](NC(=O)[C@H](Cc1ccccc1)NC(=O)[C@@H](NC(=O)[C@H](Cc1c[nH]cn1)NC(=O)CNC(=O)CNC(=O)[C@H](Cc1ccccc1)NC(=O)[C@H](CC(C)C)NC(=O)[C@@H]1CC(=O)NCC(=O)N[C@@H](Cc2ccc(O)cc2)C(=O)N2CCC[C@H]2C(=O)N[C@@H](Cc2c[nH]c3ccccc23)C(=O)N[C@@H](Cc2c[nH]c3ccccc23)C(=O)N[C@@H](CC(=O)O)C(=O)N[C@@H](Cc2ccc(O)cc2)C(=O)N[C@@H](CCCNC(=N)N)C(=O)N1)[C@@H](C)O)C(=O)N[C@@H](CO)C(=O)N1CCC[C@H]1C(=O)O [SNA-115] (GYPWWDYRDLFGGHTFISP-OH; lactam N-9),IC50,[1],0.35 µM
same,IC50,"[2]; Table 1, enzyme from human placenta, read-out: IC₅₀ (µM) Human placenta",0.22 µM
same,specificity: inhibitive activity to enzyme from human placenta compared with enzyme from Flavobacterium,[2]; [4],almost the same degree of inhibitive activity
"CC(C)CCCC/C=C/C=C\C(=O)N[C@@H](CC(=O)O)C(=O)N[C@@H]1C(=O)N[C@H](c2ccc(O)cc2)C(=O)N[C@H](CCCN)C(=O)N[C@H]([C@@H](C)O)C(=O)N[C@@H](c2ccc(O)cc2)C(=O)N[C@H](c2ccc(O)cc2)C(=O)N[C@@H]([C@H](C)O)C(=O)N[C@@H](CCCNC(N)=O)C(=O)N[C@H](C[C@@H]2CNC(=N)N2)C(=O)N[C@@H](c2ccc(O)cc2)C(=O)N[C@H](CO)C(=O)N[C@@H](c2cc(Cl)c(O)c(Cl)c2)C(=O)NCC(=O)N[C@@H](C[C@@H]2CNC(=N)N2)C(=O)N[C@H](C)C(=O)N[C@@H](c2ccc(O)cc2)C(=O)O[C@@H]1C [Enduracidin A] ({Undeca(2Z,4E)dienoyl(10-Me)}-DT[dHpg][dOrn][d(aThr)][Hpg][dHpg][aThr][Cit][X1][Hpg][dS][Phg(3,5-Cl2-4-OH)]G[X2][dA][Hpg]; ester 2-C)",acute toxicity LD₅₀,mouse,greater than 400 mg/kg
same,acute toxicity LD₅₀,rat,> 300 mg/kg
same,mode of inhibition,"[3]; Dixon Plot, enzyme from human placenta",noncompetitive inhibition
same,specificity: inhibitive activity to enzyme from human placenta compared with enzyme from Flavobacterium,[3]; [4],much higher specificity to the enzyme derived from human placenta
CN[C@@H]1C[C@H]2O[C@@](C)([C@@H]1OC)n1c3ccccc3c3c4c(c5c6ccccc6n2c5c31)C(=O)NC4 [Staurosporine],IC50,[2],> 107 µM
same,inhibitive activity to the enzyme derived from human placenta,[2]; result in words,very weak inhibitive activity
